Measurements reported in patent US20260287586A1, “METHODS OF TREATING TKI-RESISTANT AND SDH-DEFICIENT GIST” (priority 2023, published 2026).

Experiments:
[1] = tested on: BCL-XL and MCL-1 protein expression; test: Mechanism study: BCL-XL and MCL-1 protein expression; type: cell-based; conditions: possibly via inhibition of KIT signal pathway and STAT3
From the text: Therefore, selective inhibition of BCL-2, aided by TKI-mediated MCL-1 and BCL-XL inhibition, markedly augmented cleavage of caspase-3 and poly(ADP-ribose) polymerase 1 (PARP-1), thus triggering apoptosis and subsequently enhancing antitumor effects.

[2] = tested on: oncogenic signaling proteins in SDHB KD PC12 #5F7 cells; test: Western blot analysis of oncogenic signaling proteins; type: cell-based, rat
Description: Cells were extracted from SDH-deficient patient tumor tissues, seeded into 96-well plates, and incubated for 24 hours in GIST culture medium. […] Right panel, Colony formation assay in renal carcinoma cells 7860 (SDHB-wild-type) and OS-RC-2 (SDHB-deficient). Cells were seeded into 6-well plates and incubated overnight in complete culture medium.
Harvested cells treated with dimethyl sulfoxide (DMSO) or indicated concentrations of compounds were lysed in radio-immunoprecipitation (RIPA) buffer (#P0013, Beyotime, China) containing a protease inhibitor cocktail (#20104ES08, Yeasen Biotechnology Co., Ltd., Shanghai) and a phosphatase inhibitor (#20109-A, #20109-B, Yeasen). Equal amounts of protein were separated by 4-20% sodium dodecyl sulfate polyacrylamide gel electrophoresis (SDS-PAGE) and transferred to nitrocellulose membranes. After being blocked with 3% bovine serum, membranes were incubated with primary antibodies, followed by horseradish peroxidase (HRP)-conjugated secondary antibody (#7074, anti-rabbit IgG, CST; #7076, anti-mouse IgG, CST). Finally, bound secondary antibodies were visualized using an ECL Western Blotting Detection Kit (Yeasen). […]

SMILES: Cc1ccc(C(=O)Nc2ccc(CN3CCN(C)CC3)c(C(F)(F)F)c2)cc1C#Cc1cnc2[nH]ncc2c1 [Olverembatinib, olverembatinib]
- effect on BCL-XL and MCL-1 protein expression [1]: downregulate BCL-XL and MCL-1 protein expression
- effect on HIF-1α, HIF-2α, VEGFA, FGFR1, IGF-1R, p-FGFR1, p-IGF-1R, STAT3, p-STAT3, Src and downstream AKT, ERK1/2 ([2]; 24 h treatment, FIG. 2C): dose-dependently inhibited
- cleavage of caspase-3 and poly(ADP-ribose) polymerase 1 (apoptosis induction) ([2]; tumor cell lines treated with olverembatinib): Increased cleavage of caspase-3 and poly(ADP-ribose) polymerase 1
